# In PubChem BioAssay (NCI):
#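 Where inhibition never reached the appropriate level, the endpoint shown equals the highest concentration tested. Otherwise, values were interpolated linearly from a five-concentration, 48-hour dose response in 96-well plates. TGI: total growth inhibition.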
# How the values were obtained:
# Test in all cases: growth of human tumour cells (NCI), 48 h
# [1] = test system: HCT-116 colon
# [2] = test system: SF-268 CNS
# [3] = test system: OVCAR-4 ovarian
# [4] = test system: U251 CNS
# [5] = test system: HCT-15 colon
# [6] = test system: NCI-H460 lung
# [7] = test system: MDA-MB-231 breast
# [8] = test system: SK-OV-3 ovarian
# [9] = test system: SW-620 colon
# [10] = test system: ACHN renal
# [11] = test system: A498 renal
# [12] = test system: SNB-75 CNS
# [13] = test system: LOX IMVI melanoma
# [14] = test system: A549 NSCLC
# [15] = test system: RPMI-8226 leukemia
# [16] = test system: MCF7 breast
# [17] = test system: OVCAR-5 ovarian
# [18] = test system: NCI-H226 lung
# [19] = test system: OVCAR-8 ovarian
# [20] = test system: UO-31 renal
compound,measurement,setting,value
O=[N+]([O-])c1ccc2c(c1)nc(Cc1ccc(Cl)cc1)n2C[C@@H]1CCCN2CCCCC12 (some centres undefined),TGI,[1],23.3 µM
same,TGI,[2],6.27 µM
same,TGI,[3],> 44 µM
same,TGI,[4],45.5 µM
same,TGI,[5],37.8 µM
same,TGI,[6],31.2 µM
same,TGI,[7],32.6 µM
same,TGI,[8],43.5 µM
same,TGI,[9],> 59 µM
same,TGI,[10],29 µM
same,TGI,[11],21.7 µM
same,TGI,[12],28.3 µM
same,TGI,[13],28.7 µM
same,TGI,[14],42.1 µM
same,TGI,[15],> 100 µM
same,TGI,[16],22.5 µM
same,TGI,[17],35.3 µM
same,TGI,[18],38.3 µM
same,TGI,[19],30.4 µM
C[C@H](CCC(=O)O)[C@H]1CC[C@H]2[C@@H]3[C@H](O)C[C@@H]4C[C@H](O)CC[C@]4(C)[C@H]3CC[C@]12C,TGI,[1],> 100 µM
same,TGI,[2],> 100 µM
same,TGI,[3],> 100 µM
same,TGI,[4],> 100 µM
same,TGI,[5],> 100 µM
same,TGI,[6],92 µM
same,TGI,[7],> 100 µM
same,TGI,[20],58.5 µM
same,TGI,[9],> 100 µM
same,TGI,[10],> 100 µM
same,TGI,[11],> 100 µM
same,TGI,[12],57.4 µM
same,TGI,[13],> 100 µM
same,TGI,[14],> 100 µM
same,TGI,[15],54.8 µM
same,TGI,[16],> 100 µM
same,TGI,[17],> 100 µM
same,TGI,[18],78.3 µM
same,TGI,[19],37.7 µM
CNC(=O)CNC(=O)C(Cc1ccc(NC(=O)CCCCC(C)=O)cc1)NC(=O)C(CCC(=O)OCc1ccccc1)NC(=O)OC(C)(C)C (centres undefined),TGI,[1],> 100 µM
same,TGI,[2],> 100 µM
same,TGI,[3],> 100 µM
same,TGI,[4],> 100 µM
same,TGI,[5],> 100 µM
same,TGI,[6],> 100 µM
same,TGI,[7],> 100 µM
same,TGI,[20],> 100 µM
same,TGI,[8],> 100 µM
same,TGI,[9],> 100 µM
same,TGI,[10],> 100 µM
same,TGI,[11],> 100 µM
same,TGI,[12],> 100 µM
same,TGI,[13],> 100 µM
same,TGI,[14],> 100 µM
same,TGI,[15],> 100 µM
same,TGI,[16],> 100 µM
same,TGI,[17],> 100 µM
same,TGI,[18],> 100 µM
same,TGI,[19],> 100 µM
O=[N+]([O-])C(=C(Nc1ccccc1)Nc1ccccc1)/C(Cl)=C(\Cl)Br,TGI,[1],20.1 µM
same,TGI,[2],43.1 µM
same,TGI,[3],27.3 µM
same,TGI,[4],28.2 µM
same,TGI,[5],24.2 µM
same,TGI,[6],54.5 µM
same,TGI,[7],29 µM
same,TGI,[20],21.7 µM
same,TGI,[9],18.8 µM
same,TGI,[10],25 µM
same,TGI,[11],35.6 µM
same,TGI,[12],28.4 µM
same,TGI,[13],15.2 µM
same,TGI,[14],51.1 µM
same,TGI,[15],18.8 µM
same,TGI,[16],33.9 µM
same,TGI,[17],22.5 µM
same,TGI,[18],14.4 µM
same,TGI,[19],37 µM
S=C1N=C(Cl)/C(=C\c2ccco2)N1,TGI,[1],> 100 µM
same,TGI,[2],> 100 µM
same,TGI,[3],> 100 µM
same,TGI,[4],> 100 µM
same,TGI,[5],> 100 µM
same,TGI,[6],> 100 µM
same,TGI,[7],> 100 µM
same,TGI,[20],> 100 µM
same,TGI,[8],> 100 µM
same,TGI,[9],> 100 µM
same,TGI,[10],> 100 µM
same,TGI,[11],> 100 µM
same,TGI,[12],> 100 µM
same,TGI,[13],> 100 µM
same,TGI,[14],> 100 µM
same,TGI,[15],> 100 µM
same,TGI,[16],> 100 µM
same,TGI,[17],> 100 µM
same,TGI,[18],> 100 µM
same,TGI,[19],> 100 µM
CC(/C=N\NC(=S)N(C)C)=N/NC(=S)N(C)C,TGI,[1],31.4 µM
same,TGI,[2],> 29.3 µM
same,TGI,[3],> 100 µM
same,TGI,[4],> 100 µM
same,TGI,[5],> 54.3 µM
same,TGI,[6],> 100 µM
same,TGI,[7],> 100 µM
same,TGI,[20],> 39.2 µM
same,TGI,[8],> 51.9 µM
same,TGI,[9],> 100 µM
same,TGI,[11],20.1 µM
same,TGI,[12],> 100 µM
same,TGI,[13],> 100 µM
same,TGI,[14],> 100 µM
same,TGI,[15],> 100 µM
same,TGI,[16],> 100 µM
same,TGI,[17],> 100 µM
same,TGI,[18],13.9 µM
same,TGI,[19],> 100 µM
COc1ccc(N=Nc2ccc3oc(=O)c(C(=O)Nc4ccc(Cl)cc4)cc3c2)cc1,TGI,[2],> 10 µM
same,TGI,[3],> 10 µM
same,TGI,[4],> 10 µM
same,TGI,[5],> 10 µM
same,TGI,[6],> 10 µM
same,TGI,[7],> 10 µM
same,TGI,[20],> 10 µM
same,TGI,[8],> 10 µM
same,TGI,[9],> 10 µM
same,TGI,[10],> 10 µM
same,TGI,[11],> 10 µM
same,TGI,[12],> 10 µM
same,TGI,[13],> 10 µM
same,TGI,[15],> 10 µM
same,TGI,[16],> 10 µM
same,TGI,[17],> 10 µM
same,TGI,[18],> 10 µM
same,TGI,[19],> 10 µM
Nc1nc(NCC2(CO)CCC2)cc(=O)[nH]1,TGI,[1],> 100 µM
same,TGI,[2],> 100 µM
same,TGI,[3],> 100 µM
same,TGI,[4],> 100 µM
same,TGI,[5],> 100 µM
same,TGI,[6],> 100 µM
same,TGI,[7],> 100 µM
same,TGI,[20],> 100 µM
same,TGI,[8],> 100 µM
same,TGI,[9],> 100 µM
same,TGI,[11],> 100 µM
same,TGI,[12],> 100 µM
same,TGI,[13],> 100 µM
same,TGI,[14],> 100 µM
same,TGI,[15],> 100 µM
same,TGI,[16],> 100 µM
same,TGI,[17],> 100 µM
same,TGI,[18],> 100 µM
same,TGI,[19],> 100 µM
Clc1ccc(C=NC23CC4CC(CC(C4)C2)C3)cc1Cl,TGI,[1],> 10 µM
same,TGI,[2],> 10 µM
same,TGI,[3],> 10 µM
same,TGI,[4],> 10 µM
same,TGI,[5],> 10 µM
same,TGI,[6],> 10 µM
same,TGI,[7],> 10 µM
same,TGI,[8],> 10 µM
same,TGI,[9],> 10 µM
same,TGI,[10],> 10 µM
same,TGI,[11],> 10 µM
same,TGI,[12],> 10 µM
same,TGI,[13],> 10 µM
same,TGI,[14],> 10 µM
same,TGI,[15],> 10 µM
same,TGI,[16],> 10 µM
same,TGI,[17],> 10 µM
same,TGI,[18],> 10 µM
same,TGI,[19],> 10 µM
O=C1CCCCCC1CC(Sc1ccccc1)Sc1ccccc1 (centres undefined),TGI,[2],> 100 µM
same,TGI,[3],> 100 µM
same,TGI,[4],> 100 µM
same,TGI,[5],> 100 µM
same,TGI,[6],> 100 µM
same,TGI,[7],> 100 µM
same,TGI,[20],> 100 µM
same,TGI,[8],> 100 µM
same,TGI,[9],> 100 µM
same,TGI,[10],> 100 µM
same,TGI,[11],> 100 µM
same,TGI,[12],> 100 µM
same,TGI,[13],> 100 µM
same,TGI,[14],> 100 µM
same,TGI,[15],> 100 µM
same,TGI,[16],> 100 µM
same,TGI,[17],> 100 µM
same,TGI,[18],> 100 µM
same,TGI,[19],> 100 µM
COc1cc([C@@H]2c3cc4c(cc3[C@@H](c3c(O)cc(O)c5c3O[C@H](c3ccc(O)c(O)c3)[C@H](OC(=O)c3cc(O)c(O)c(O)c3)C5)[C@H]3COC(=O)[C@H]23)OCO4)cc(OC)c1OC,TGI,[1],> 100 µM
same,TGI,[2],> 100 µM
same,TGI,[3],> 100 µM
same,TGI,[4],> 100 µM
same,TGI,[5],> 100 µM
same,TGI,[6],96.9 µM
same,TGI,[7],> 100 µM
same,TGI,[8],> 100 µM
same,TGI,[9],> 100 µM
same,TGI,[10],> 50 µM
same,TGI,[11],> 100 µM
same,TGI,[12],> 100 µM
same,TGI,[13],> 100 µM
same,TGI,[14],> 100 µM
same,TGI,[15],> 100 µM
same,TGI,[16],> 100 µM
same,TGI,[17],> 100 µM
same,TGI,[18],7.53 µM
same,TGI,[19],> 100 µM
Nc1cc(-c2ccc(Cl)cc2)nn1-c1nc2ccccc2nc1-c1ccccc1,TGI,[1],> 100 µM
same,TGI,[2],> 100 µM
same,TGI,[3],> 100 µM
same,TGI,[4],> 100 µM
same,TGI,[5],> 100 µM
same,TGI,[6],> 100 µM
same,TGI,[7],> 100 µM
same,TGI,[8],> 100 µM
same,TGI,[9],> 100 µM
same,TGI,[10],> 100 µM
same,TGI,[11],> 100 µM
same,TGI,[12],64.9 µM
same,TGI,[13],> 100 µM
same,TGI,[14],> 100 µM
same,TGI,[15],> 100 µM
same,TGI,[16],> 100 µM
same,TGI,[17],> 100 µM
same,TGI,[18],> 100 µM
same,TGI,[19],> 100 µM
